From ChEMBL document CHEMBL4622903, “Repurposing of antipsychotics perphenazine for the treatment of endometrial cancer” (Bioorg Med Chem Lett, 2020)
One block for each molecule: values may come before it. Calls of active or inactive are those of the source. The rule behind the calls is not given here.

Assays:
[1] = test system: HEC-1-A; test: Antiproliferative activity against human Hec1A cells assessed as inhibition of cell viability by CCK8 assay; assay type: functional, cell-based
[2] = test system: KLE; test: Antimigratory activity against progesterone-resistant human KLE cells assessed as reduction in cell migration at 10 uM after 48 hrs by transwell assay; assay type: functional, cell-based
[3] = test system: HEC-1B cell line; test: Antiproliferative activity against human HEC1B cells assessed as inhibition of cell viability by CCK8 assay; assay type: functional, cell-based
[4] = test system: Ishikawa; test: Antitumor activity against human Ishikawa cells xenografted in mouse assessed as tumor growth inhibition at 30 mg/kg measured after 28 days relative to control; assay type: functional; details: 672 h, read-out: GI
[5] = test system: Ishikawa; test: Inhibition of colony formation in progesterone sensitive human Ishikawa cells at 20 to 30 uM; assay type: functional, cell-based
[6] = test system: KLE; test: Antiproliferative activity against human KLE cells assessed as inhibition of cell viability by CCK8 assay; assay type: functional, cell-based
[7] = test system: Ishikawa; test: Antiproliferative activity against human Ishikawa cells assessed as inhibition of cell viability by CCK8 assay; assay type: functional, cell-based
[8] = test system: Ishikawa; test: Antimigratory activity against progesterone sensitive human Ishikawa cells assessed as inhibition of cell migration at 10 uM after 48 hrs by transwell assay; assay type: functional, cell-based
[9] = test system: AN3-CA; test: Antiproliferative activity against human AN3CA cells assessed as inhibition of cell viability by CCK8 assay; assay type: functional, cell-based
[10] = test system: Ishikawa; test: Antitumor activity against human Ishikawa cells xenografted in mouse assessed as tumor growth inhibition at 15 mg/kg measured after 28 days relative to control; assay type: functional; details: 672 h, read-out: GI
[11] = test system: HEC-1B cell line; test: Potency index, ratio of medroxyprogesterone acetate IC50 to test compound IC50 for antiproliferative activity against human HEC1B cells assessed as inhibition of cell viability by CCK8 assay; assay type: functional
[12] = test system: KLE; test: Inhibition of colony formation in progesterone resistant human KLE cells; assay type: functional, cell-based
[13] = molecular target: RAC-alpha serine/threonine-protein kinase (Homo sapiens) (UniProt P31749); test: Inhibition of AKT phosphorylation at ser 473 residue in human Ishikawa cells at 20 uM after 48 hrs by Western blot analysis; assay type: cell-based
[14] = test system: Ishikawa; test: Induction of apoptosis in progesterone-sensitive human Ishikawa cells assessed as early apoptotic cells at 20 uM after 48 hrs by Annexin-V/PI staining based flow cytometry (reference value: 1.92%); assay type: functional
[15] = test system: KLE; test: Induction of apoptosis in progesterone-resistant human KLE cells assessed as necrotic cells at 10 uM after 48 hrs by Annexin-V/PI staining based flow cytometry (reference value: 1.30%); assay type: functional
[16] = test system: KLE; test: Induction of apoptosis in progesterone-resistant human KLE cells assessed as early apoptotic cells at 10 uM after 48 hrs by Annexin-V/PI staining based flow cytometry (reference value: 2.85%); assay type: functional
[17] = test system: KLE; test: Potency index, ratio of medroxyprogesterone acetate IC50 to test compound IC50 for antiproliferative activity against human KLE cells assessed as inhibition of cell viability by CCK8 assay; assay type: functional
[18] = test system: Ishikawa; test: Induction of apoptosis in progesterone-sensitive human Ishikawa cells after 48 hrs by Annexin-V/PI staining based flow cytometry; assay type: functional, cell-based
[19] = test system: KLE; test: Induction of apoptosis in progesterone-resistant human KLE cells after 48 hrs by Annexin-V/PI staining based flow cytometry; assay type: functional, cell-based
[20] = test system: KLE; test: Induction of apoptosis in progesterone-resistant human KLE cells assessed as late apoptotic cells at 20 uM after 48 hrs by Annexin-V/PI staining based flow cytometry (reference value: 3.56%); assay type: functional
[21] = test system: Ishikawa; test: Inhibition of colony formation in progesterone sensitive human Ishikawa cells; assay type: functional, cell-based
[22] = test system: KLE; test: Induction of apoptosis in progesterone-resistant human KLE cells assessed as late apoptotic cells at 10 uM after 48 hrs by Annexin-V/PI staining based flow cytometry (reference value: 3.56%); assay type: functional
[23] = test system: Ishikawa; test: Antitumor activity against human Ishikawa cells xenografted in mouse assessed as tumor growth inhibition at 3 mg/kg measured after 28 days relative to control; assay type: functional; details: 672 h, read-out: GI
[24] = test system: Ishikawa; test: Potency index, ratio of medroxyprogesterone acetate IC50 to test compound IC50 for antiproliferative activity against human Ishikawa cells assessed as inhibition of cell viability by CCK8 assay; assay type: functional
[25] = test system: AN3-CA; test: Potency index, ratio of medroxyprogesterone acetate IC50 to test compound IC50 for antiproliferative activity against human AN3CA cells assessed as inhibition of cell viability by CCK8 assay; assay type: functional
[26] = molecular target: RAC-alpha serine/threonine-protein kinase (Homo sapiens) (UniProt P31749); test: Inhibition of AKT phosphorylation at ser 473 residue in human KLE cells at 20 uM after 48 hrs by Western blot analysis; assay type: cell-based
[27] = test system: Ishikawa; test: Induction of apoptosis in progesterone-sensitive human Ishikawa cells assessed as late apoptotic cells at 10 uM after 48 hrs by Annexin-V/PI staining based flow cytometry (reference value: 3.56%); assay type: functional
[28] = test system: KLE; test: Induction of apoptosis in progesterone-resistant human KLE cells assessed as necrotic cells at 20 uM after 48 hrs by Annexin-V/PI staining based flow cytometry (reference value: 1.30%); assay type: functional
[29] = test system: Ishikawa; test: Induction of apoptosis in progesterone-sensitive human Ishikawa cells assessed as necrotic cells at 20 uM after 48 hrs by Annexin-V/PI staining based flow cytometry (reference value: 1.21%); assay type: functional
[30] = test system: Ishikawa; test: Induction of apoptosis in progesterone-sensitive human Ishikawa cells assessed as necrotic cells at 10 uM after 48 hrs by Annexin-V/PI staining based flow cytometry (reference value: 1.21%); assay type: functional
[31] = Toxicity in mouse xenografted with human Ishikawa cells assessed as effect on body weight at 3 to 15 mg/kg after 28 days; assay type: organism-based; details: in vivo, 672 h
[32] = test system: Ishikawa; test: Induction of apoptosis in progesterone-sensitive human Ishikawa cells assessed as early apoptotic cells at 10 uM after 48 hrs by Annexin-V/PI staining based flow cytometry (reference value: 1.92%); assay type: functional
[33] = test system: Ishikawa; test: Induction of apoptosis in progesterone-sensitive human Ishikawa cells assessed as late apoptotic cells at 20 uM after 48 hrs by Annexin-V/PI staining based flow cytometry (reference value: 3.56%); assay type: functional
[34] = test system: HEC-1-A; test: Potency index, ratio of medroxyprogesterone acetate IC50 to test compound IC50 for antiproliferative activity against human Hec1A cells assessed as inhibition of cell viability by CCK8 assay; assay type: functional
[35] = test system: KLE; test: Induction of apoptosis in progesterone-resistant human KLE cells assessed as early apoptotic cells at 20 uM after 48 hrs by Annexin-V/PI staining based flow cytometry (reference value: 2.85%); assay type: functional

Chain of RAC-alpha serine/threonine-protein kinase (Homo sapiens) (P31749 whole entry): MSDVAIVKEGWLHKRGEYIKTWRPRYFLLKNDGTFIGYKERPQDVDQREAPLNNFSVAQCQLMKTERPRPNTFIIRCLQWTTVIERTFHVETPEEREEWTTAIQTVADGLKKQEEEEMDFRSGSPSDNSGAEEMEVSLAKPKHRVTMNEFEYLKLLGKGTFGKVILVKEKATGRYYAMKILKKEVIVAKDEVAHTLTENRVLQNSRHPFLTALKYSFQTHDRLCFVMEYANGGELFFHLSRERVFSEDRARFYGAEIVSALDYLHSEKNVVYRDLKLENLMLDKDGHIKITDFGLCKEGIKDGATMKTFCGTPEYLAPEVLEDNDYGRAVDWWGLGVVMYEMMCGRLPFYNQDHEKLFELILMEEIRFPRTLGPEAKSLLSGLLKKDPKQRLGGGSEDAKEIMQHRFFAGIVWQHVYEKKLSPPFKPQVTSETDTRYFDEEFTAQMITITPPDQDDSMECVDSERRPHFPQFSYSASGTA

Structure (SMILES): CC(=O)O[C@]1(C(C)=O)CC[C@H]2[C@@H]3C[C@H](C)C4=CC(=O)CC[C@]4(C)[C@H]3CC[C@@]21C [MEDROXYPROGESTERONE ACETATE]
- IC50 [1]: 51.8 µM
- Activity [2]: inactive
- IC50 [3]: 60.4 µM
- inhibition in vivo at 30 mg/kg [4]: 22.6%
- inhibition [5]: Active
- IC50 [6]: > 80 µM
- IC50 [7]: 37 µM
- inhibition [8]: Active
- IC50 [9]: 37.1 µM

- inhibition [13]: Active
- inhibition [26]: Active
Structure (SMILES): OCCN1CCN(CCCN2c3ccccc3Sc3ccc(Cl)cc32)CC1 [PERPHENAZINE]
- inhibition in vivo at 15 mg/kg [10]: 79.9%
- Ratio IC50 [11]: 2
- inhibition [12]: Dose-dependent effect
- Activity [14]: 6.76%
- Activity [15]: 5.45%
- Activity [16]: 4.33%
- IC50 [1]: 23.3 µM
- Ratio IC50 [17]: >2.6
- Activity [18]: Dose-dependent effect
- Activity [19]: Dose-dependent effect
- Activity [20]: 11.41%
- Activity [2]: Active
- IC50 [3]: 29.8 µM
- inhibition [21]: Dose-dependent effect
- Activity [22]: 7.88%
- inhibition in vivo at 3 mg/kg [23]: 58.1%
- Ratio IC50 [24]: 1.9
- Ratio IC50 [25]: 1.5
- IC50 [6]: 30.8 µM
- Activity [27]: 7.4%
- Activity [28]: 2.68%
- Activity [29]: 2.68%
- Activity [30]: 2.64%
- Activity [31]: Non-Toxic
- IC50 [7]: 19.4 µM
- Activity [32]: 6.9%
- Activity [33]: 12.52%
- Ratio IC50 [34]: 2.2
- inhibition [8]: Active
- IC50 [9]: 25.4 µM
- Activity [35]: 6.07%
